In publication PMC4955970, “Stable, synthetic analogs of diadenosine tetraphosphate inhibit rat and human P2X3 receptors and inflammatory pain” (Molecular Pain, 2016):
Values joined by “and” are separate entries in the source; they are usually repeats but may differ in a detail not shown here. Equal entries are not always repeated. Where two headings read alike, the source gives them in different places.

Columns and labels:
[1] = tested on: native P2X3Rs / P2X2/3Rs in NG neurons; experiment: Whole-cell recording of α,β-meATP currents in cultured nodose ganglion (NG) neurons; assay type: cell-based, rat; settings: 1 µM, 6 min; 10 µM α,β-meATP
Experimental: (§1) Rat trigeminal, nodose, or dorsal root ganglion (TG, NG, and DRG, respectivley) neurons in culture were prepared as described previously.[46],[47] Neurons were plated on poly-L-lysine (0.2 mg/ml)-coated Petri dishes and cultured for one to two days under an atmosphere containing 5% CO2. Cells were used within two days of plating when they lacked processes. HEK293T cells were prepared as reported previously[32],[48] and transfected with rat or human full-length P2X3 cDNA subcloned into pIRES2-EGFP (Clontech, Mountain View, CA, USA).
(§2) TG, NG, DRG, or HEK cells were recorded in the whole-cell configuration while being continuously superfused (at 2 ml/min) with control solution containing (in mM): 152 NaCl, 5 KCl, 1 MgCl2, 2 CaCl2, 10 glucose, and 10 HEPES; pH was adjusted to 7.4 with NaOH and osmolarity was adjusted to 320 mOsM with glucose. […] Responses to selective P2X3R agonist α,β-methylene-ATP (α,β-meATP; resistant to ectoATPase hydrolysis, Sigma-Aldrich) were measured using an EPC-9 amplifier operated by HEKA Patch Master software (HEKA Electronik, Germany). Cells were voltage-clamped at −70 mV. In most cells, series resistance was compensated by 80%. To determine EC50 values, dose-response curves were constructed for α,β-meATP by administering different agonist doses same cells and fitting data to a logistic equation (Origin 8.0, Microcal, Northampton, MA). […]

[2] = target: T1, native P2X3Rs / P2X2/3Rs in NG neurons (Rattus norvegicus, UniProt P49653+P49654); experiment: as above; assay type: cell-based; settings: read-out: inhibition of sustained residual component in NG neurons
T1 construct: effects of AppNHppA on native P2X3Rs in TG, DRG, and NG neurons were investigated; while NG neurons express heteromeric P2X2/3Rs subunits; endogenous in cells; host or cells: cultured rat nodose ganglion (NG) neurons
T1 sequence (P49654 1-397): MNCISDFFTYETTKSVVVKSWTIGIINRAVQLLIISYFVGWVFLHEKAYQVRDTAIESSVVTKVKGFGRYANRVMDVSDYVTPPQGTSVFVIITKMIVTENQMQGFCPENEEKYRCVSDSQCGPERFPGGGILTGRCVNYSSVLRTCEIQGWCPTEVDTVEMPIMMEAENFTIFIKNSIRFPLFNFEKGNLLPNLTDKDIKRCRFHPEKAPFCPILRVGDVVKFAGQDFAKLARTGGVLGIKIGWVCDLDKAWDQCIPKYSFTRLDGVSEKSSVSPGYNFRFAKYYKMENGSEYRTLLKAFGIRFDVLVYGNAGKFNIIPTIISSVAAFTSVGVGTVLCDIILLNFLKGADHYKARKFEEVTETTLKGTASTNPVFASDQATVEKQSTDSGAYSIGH
T1 sequence (P49653 1-472): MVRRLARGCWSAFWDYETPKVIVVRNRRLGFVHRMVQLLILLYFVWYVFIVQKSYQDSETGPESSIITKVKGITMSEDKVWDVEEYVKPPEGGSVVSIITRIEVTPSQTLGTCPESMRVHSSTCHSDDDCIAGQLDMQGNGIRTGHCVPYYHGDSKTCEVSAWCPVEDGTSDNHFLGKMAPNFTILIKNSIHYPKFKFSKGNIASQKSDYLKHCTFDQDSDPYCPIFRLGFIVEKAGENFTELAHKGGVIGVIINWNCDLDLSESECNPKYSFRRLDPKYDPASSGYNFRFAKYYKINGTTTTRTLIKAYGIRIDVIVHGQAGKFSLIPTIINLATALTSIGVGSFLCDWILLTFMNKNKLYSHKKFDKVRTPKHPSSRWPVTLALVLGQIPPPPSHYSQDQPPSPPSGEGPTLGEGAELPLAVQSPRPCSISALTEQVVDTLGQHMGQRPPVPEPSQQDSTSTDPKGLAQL
Experimental: as §1, §2

[3] = tested on: formalin-induced nociceptive behavior; experiment: Formalin test (spontaneous jerking of the injected hindpaw); assay type: in vivo, rat; settings: for IC50: locally administered concentration, coinjection with formalin; for in vivo IC50 per animal body weight: calculated from effective concentrations in formalin model
Experimental: All animal experiments were carried out in accordance with the “Guide for the Care and Use of Laboratory Animals” as adopted by the Bogomoletz Institute of Physiology Clinic of Animal Care and Use. The formalin test experiments were performed on 21-day-old male Wistar rats, weighing 40 ± 5 g according to the method described previously.[49],[50] Briefly, animal was acclimated to an acrylic observation chamber for at least 1 h before the injection of formalin (50 µl of 0.5% solution in 0.9% saline) into the dorsal surface of the right hindpaw. Immediately after the injection, each animal was returned to the observation chamber and its behavioral characteristics were recorded for 45 min. We noticed consistently observed type of response: spontaneous jerking of the injected paw. The number of jerks was measured for each 1-min block, using self-developed computer software.
Figure 8. Effects of subcutaneous Ap4A analogs on pain responses induced by intraplantar (right hindpaw) formalin injection. Rats were subcutaneously injected with formalin solution alone (0.5%, 50 µl, control) or coinjected with the formalin solution and solutions with AppCH2ppA (1 µM–100 µM, 100 µl) or AppNHppA (0.1 µM–100 µM, 100 µl). Age-matched control animals were injected with saline. (a) Time course of the effects of subcutaneous AppCH2ppA (left) and AppNHppA (right) on the number of the spontaneous jerkings of the injected paw. (b) Bar graphs of the effects of AppCH2ppA (b, c) and AppNHppA (d, e) on the integral number of spontaneous jerkings. Measurements were made during the acute phase (0–6 min) and tonic phase (7–45 min) of the formalin response. (f) Dose-response curves for AppCH2ppA (left) and AppNHppA (right) during tonic and acute phases. For each concentration 6–7 rats were used.

Question: `Nc1ncnc2c1ncn2[C@@H]1O[C@H](COP(=O)(O)OP(=O)(O)NP(=O)(O)OP(=O)(O)OC[C@H]2O[C@@H](n3cnc4c(N)ncnc43)[C@H](O)[C@@H]2O)[C@@H](O)[C@H]1O` [AppNHppA, diadenosine 5′,5′′′-P^1,P^4-(β,γ-imido)tetraphosphate] was tested. Which “inhibition of peak currents in NG neurons” value [1] did it give?
Answer: 16.8 ± 11.8%

Question: And the inhibition at 1 µM [2]?
Answer: 2 ± 4%

Question: What about the IC50 ([3]; Rattus norvegicus, acute phase, read-out: IC50 in the acute phase of formalin test) of the same compound?
Answer: > 100000 nM

Question: And the IC50 ([3]; Rattus norvegicus, tonic phase 7–45 min, read-out: IC50 in the tonic phase of formalin test)?
Answer: 110 ± 20 nM

Question: And the “in vivo IC50 per animal body weight” value [3]?
Answer: 0.28 nmol/kg and 0.23 µg/kg

Question: How did the “in vivo IC50 per animal body weight” value [3] turn out when `Nc1ncnc2c1ncn2[C@@H]1O[C@H](COP(=O)(O)OP(=O)(O)CP(=O)(O)OP(=O)(O)OC[C@H]2O[C@@H](n3cnc4c(N)ncnc43)C(O)C2O)C(O)C1O` (stereo partly drawn) [AppCH2ppA, diadenosine 5′,5′′′-P^1,P^4-(β,γ-methylene)tetraphosphate] was run?
Answer: 0.72 nmol/kg and 0.61 µg/kg

Question: What about the IC50 ([3]; acute phase, read-out: IC50 in the acute phase of formalin test) of the same compound?
Answer: 34700 ± 13200 nM

Question: And the IC50 ([3]; tonic phase 7–45 min, read-out: IC50 in the tonic phase of formalin test)?
Answer: 290 ± 50 nM
